The values below come from US20250051327A1, “MALT-1 MODULATORS” (EXSCIENTIA AI LIMITED, priority 2020, published 2025).

For orientation: IC50 means the point on the concentration scale where inhibition reaches its midpoint.

Test [1] relates to IL-2 secretion by human effector memory T cells (TEM). The test can be described thus: Effector memory T cells IL-2 release assay. Type of test: cell-based. The conditions noted are these: T-cell; human CD4+ effector memory T cells, CD3/CD28 bead stimulation, 24 h; read-out: CD4TC IL2 IC50. An outline of the steps:
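Human CD4+ effector memory T cells from healthy-donor buffy coats were stimulated with anti-CD3/CD28 Dynabeads and exposed to 10 semi-log compound doses (0.1% DMSO) for 24 h at 37 °C. Supernatant IL-2 was measured by HTRF, and IC50 came from a 4-parameter logistic fit to maximal IL-2. Viability was checked by flow cytometry.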

For test [2], the target named is Recombinant human MALT-1 (amino acids 340-824) (Homo sapiens (Human), UniProt Q9UDY8). The test can be described thus: MALT-1 inhibition assay (fluorogenic substrate Ac-LRSR-Rh110-DP). As to conditions: recombinant human MALT-1, substrate Ac-LRSR-Rh110-DP. The class given is biochemical. An outline of the steps: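 MALT-1 at 3 nM final was reacted with 10 μM Ac-LRSR-Rh110-DP, with substrate addition starting the reaction. Incubation ran 60 minutes at 25° C in the dark. Percent inhibition from fluorescence across doses was fitted to a 4-parameter logistic to give IC50.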
Sequence of Recombinant human MALT-1 (amino acids 340-824) (Q9UDY8 340-824): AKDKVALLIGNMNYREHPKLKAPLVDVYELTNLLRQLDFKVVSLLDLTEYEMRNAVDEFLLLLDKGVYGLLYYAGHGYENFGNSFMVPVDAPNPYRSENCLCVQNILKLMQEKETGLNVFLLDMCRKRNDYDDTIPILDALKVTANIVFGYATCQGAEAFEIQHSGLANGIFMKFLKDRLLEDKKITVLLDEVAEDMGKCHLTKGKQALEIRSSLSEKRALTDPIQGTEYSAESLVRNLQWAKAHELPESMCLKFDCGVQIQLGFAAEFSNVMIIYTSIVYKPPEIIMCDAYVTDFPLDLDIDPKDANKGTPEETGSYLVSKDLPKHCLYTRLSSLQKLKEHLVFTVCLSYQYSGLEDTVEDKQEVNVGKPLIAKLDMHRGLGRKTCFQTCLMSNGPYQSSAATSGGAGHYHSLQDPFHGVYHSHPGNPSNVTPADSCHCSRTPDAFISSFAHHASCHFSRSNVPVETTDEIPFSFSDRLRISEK

Take `CN(C(=O)C[C@@H]1CCS(=O)(=O)C1)[C@@H](c1ccc(N2CCCc3c2cnc2cc(Cl)nn32)cc1)C(F)(F)F` (relative stereo) [CPD0072800, N-[(1S)-1-(4-{4-chloro-2,3,7,10-tetraazatricyclo[7.4.0.0^2,6]trideca-1(9),3,5,7-tetraen-10-yl}phenyl)-2,2,2-trifluoroethyl]-2-[(3rel-R)-1,1-dioxo-1λ^6-thiolan-3-yl]-N-methylacetamide]: the IC50 was 0.187 µM in test [1] and 0.092 µM in test [2].

Consider `CN(C(=O)C1CCCO1)[C@@H](c1ccc(N2CCCc3c2cnc2cc(Cl)nn32)cc1)C(F)(F)F` (stereo partly drawn) [CPD0021570, N-[(1S)-1-(4-{4-chloro-2,3,7,10-tetraazatricyclo[7.4.0.0^2,6]trideca-1(9),3,5,7-tetraen-10-yl}phenyl)-2,2,2-trifluoroethyl]-N-methyloxolane-2-carboxamide], for which the IC50 is 0.142 µM in test [1] and 0.147 µM in test [2].

As to `CN(C(=O)C1CCS(=O)(=O)CC1)[C@@H](c1ccc(N2CCCc3c2cnc2cc(Cl)nn32)cn1)C(F)(F)F` [CPD0073056, N-[(1S)-1-[5-(4-chloro-2,3,7,10-tetrazatricyclo[7.4.0.0^2,6]trideca-1(9),3,5,7-tetraen-10-yl)-2-pyridyl]-2,2,2-trifluoro-ethyl]-N-methyl-1,1-dioxo-thiane-4-carboxamide], the IC50 was 0.78 µM in test [1] and 0.197 µM in test [2].

Consider `C[C@H]1CCN(c2ccc([C@H](N(C)C(=O)[C@H]3CC[S@](=N)(=O)CC3)C(F)(F)F)cc2)c2cnc3cc(Cl)nn3c21` (relative stereo) [CPD0073195, (1rel-R,4rel-R)-N-[(1S)-1-{4-[(13rel-S)-4-chloro-13-methyl-2,3,7,10-tetraazatricyclo[7.4.0.0^2,6]trideca-1(9),3,5,7-tetraen-10-yl]phenyl}-2,2,2-trifluoroethyl]-1-imino-N-methyl-1-oxo-1λ^6-thiane-4-carboxamide], for which the figures for the IC50 in test [1] and in test [2] were 0.051 µM and 0.022 µM, respectively.

As to `COC(C)c1c(Nc2ccc([C@H](N(C)C(=O)C3CCS(=O)(=O)CC3)C(F)(F)F)cc2)cnn2cc(Cl)nc12` (stereo partly drawn) [CPD0072526, N-[(1S)-1-[4-[[2-chloro-8-(1-methoxyethyl)imidazo[1,2-b]pyridazin-7-yl]amino]phenyl]-2,2,2-trifluoro-ethyl]-N-methyl-1,1-dioxo-thiane-4-carboxamide], the IC50 in test [1] stood at 0.071 µM; in test [2], 0.047 µM.

Turning to `Cc1ncc(C(=O)N(C)[C@@H](c2ccc(N3CCCc4c3cnc3cc(Cl)nn43)cc2)C(F)(F)F)s1` [CPD0019348, N-[(1S)-1-(4-{4-chloro-2,3,7,10-tetraazatricyclo[7.4.0.0^2,6]trideca-1(9),3,5,7-tetraen-10-yl}phenyl)-2,2,2-trifluoroethyl]-N,2-dimethyl-1,3-thiazole-5-carboxamide], the IC50 was determined as 0.157 µM in test [1] and 0.193 µM in test [2].

Take `COC[C@@]1(C)CCN(c2ccc([C@H](N(C)C(=O)[C@H]3CC[S@@](=N)(=O)CC3)C(F)(F)F)cc2)c2cnc3cc(Cl)nn3c21` (relative stereo) [CPD0073133, (1rel-s,4rel-s)-N-[(1S)-1-[4-[(13rel-S)-4-chloro-13-(methoxymethyl)-13-methyl-2,3,7,10-tetrazatricyclo[7.4.0.0^2,6]trideca-1(9),3,5,7-tetraen-10-yl]phenyl]-2,2,2-trifluoro-ethyl]-1-imino-N-methyl-1-oxo-1λ^6-thiane-4-carboxamide]: the IC50 in test [1] worked out at 0.064 µM; in test [2], 0.081 µM.

Consider `CCC(O)C(=O)N(C)[C@@H](c1ccc(N2CCCc3c2cnc2cc(Cl)nn32)cc1)C(F)(F)F` (stereo partly drawn) [CPD0021576, N-[(1S)-1-(4-{4-chloro-2,3,7,10-tetraazatricyclo[7.4.0.0^2,6]trideca-1(9),3,5,7-tetraen-10-yl}phenyl)-2,2,2-trifluoroethyl]-2-hydroxy-N-methylbutanamide], for which the values for the IC50 in test [1] and in test [2] were 0.333 µM and 0.146 µM, respectively.

For `CN(C(=O)CN1C(=O)COC1=O)[C@@H](c1ccc(N2CCCc3c2cnc2cc(Cl)nn32)cc1)C(F)(F)F` [CPD0073237, N-[(1S)-1-(4-{4-chloro-2,3,7,10-tetraazatricyclo[7.4.0.0^2,6]trideca-1(9),3,5,7-tetraen-10-yl}phenyl)-2,2,2-trifluoroethyl]-2-(2,4-dioxo-1,3-oxazolidin-3-yl)-N-methylacetamide], the values for the IC50 in test [1] and in test [2] were 0.513 µM and 0.174 µM, respectively.

`CN(C(=O)C1CCSCC1)[C@@H](c1ccc(N2CCCc3c2cnc2cc(Cl)nn32)cc1)C(F)(F)F` [CPD0019482, N-[(1S)-1-(4-{4-chloro-2,3,7,10-tetraazatricyclo[7.4.0.0^2,6]trideca-1(9),3,5,7-tetraen-10-yl}phenyl)-2,2,2-trifluoroethyl]-N-methylthiane-4-carboxamide]: the IC50 worked out at 0.146 µM in test [1] and 0.091 µM in test [2].

On to `CN(C(=O)C1CN(S(C)(=O)=O)C1)[C@@H](c1ccc(N2CCCc3c2cnc2cc(Cl)nn32)cc1)C(F)(F)F` [CPD0073238, N-[(1S)-1-(4-{4-chloro-2,3,7,10-tetraazatricyclo[7.4.0.0^2,6]trideca-1(9),3,5,7-tetraen-10-yl}phenyl)-2,2,2-trifluoroethyl]-1-methanesulfonyl-N-methylazetidine-3-carboxamide], for which the IC50 in test [1] was found to be 0.174 µM; in test [2] it was 0.087 µM.

`Cc1scnc1C(=O)N(C)[C@@H](c1ccc(N2CCCc3c2cnc2cc(Cl)nn32)cc1)C(F)(F)F` [CPD0019353, N-[(1S)-1-(4-{4-chloro-2,3,7,10-tetraazatricyclo[7.4.0.0^2,6]trideca-1(9),3,5,7-tetraen-10-yl}phenyl)-2,2,2-trifluoroethyl]-N,5-dimethyl-1,3-thiazole-4-carboxamide]: the results for the IC50 in test [1] and in test [2] were 0.271 µM and 0.582 µM, respectively.

Regarding `COc1ccc2ncc(Nc3ccc([C@H](N(C)C(=O)[C@H]4CC[S@@](=N)(=O)CC4)C(F)(F)F)cc3)c([C@H](C)OC)c2n1` (stereo in doubt) [CPD0073129, (1 rel-s,4rel-s)-1-imino-N-methyl-1-oxo-N-[(1S)-2,2,2-trifluoro-1-[4-({6-methoxy-4-[(1 rel-S)-1-methoxyethyl]-1,5-naphthyridin-3-yl}amino)phenyl]ethyl]-1λ^6-thiane-4-carboxamide], the values for the IC50 in test [1] and in test [2] were 0.036 µM and 0.064 µM, respectively.

`CC(=O)N(C)[C@@H](c1ccc(N2CCCc3c2cnc2cc(Cl)nn32)cc1)C(F)(F)F` [CPD0019349, N-[(1S)-1-(4-{4-chloro-2,3,7,10-tetraazatricyclo[7.4.0.0^2,6]trideca-1(9),3,5,7-tetraen-10-yl}phenyl)-2,2,2-trifluoroethyl]-N-methylacetamide]: the IC50 in test [1] amounted to 0.083 µM; in test [2], 0.23 µM.

Take `CN(C(=O)[C@H]1CC[S@@](=N)(=O)CC1)[C@@H](c1ccc(N2CCC(C)(C)c3c2cnc2cc(Cl)nn32)cc1)C(F)(F)F` (relative stereo) [CPD0072784, (1rel-s,4rel-s)-N-[(1S)-1-(4-{4-chloro-13,13-dimethyl-2,3,7,10-tetraazatricyclo[7.4.0.0^2,6]trideca-1(9),3,5,7-tetraen-10-yl}phenyl)-2,2,2-trifluoroethyl]-1-imino-N-methyl-1-oxo-1λ^6-thiane-4-carboxamide]: the IC50 came to 0.056 µM in test [1] and 0.074 µM in test [2].
